Activity calls are given as the source filed them.
Columns and labels:
[1] = target: T1, Mannose-6-phosphate isomerase (Homo sapiens, UniProt P34949); experiment: MPI enzyme activity inhibition – biochemical, fluorescence intensity, coupled assay, primary screen (AID 1209)
T1 sequence (P34949 whole entry): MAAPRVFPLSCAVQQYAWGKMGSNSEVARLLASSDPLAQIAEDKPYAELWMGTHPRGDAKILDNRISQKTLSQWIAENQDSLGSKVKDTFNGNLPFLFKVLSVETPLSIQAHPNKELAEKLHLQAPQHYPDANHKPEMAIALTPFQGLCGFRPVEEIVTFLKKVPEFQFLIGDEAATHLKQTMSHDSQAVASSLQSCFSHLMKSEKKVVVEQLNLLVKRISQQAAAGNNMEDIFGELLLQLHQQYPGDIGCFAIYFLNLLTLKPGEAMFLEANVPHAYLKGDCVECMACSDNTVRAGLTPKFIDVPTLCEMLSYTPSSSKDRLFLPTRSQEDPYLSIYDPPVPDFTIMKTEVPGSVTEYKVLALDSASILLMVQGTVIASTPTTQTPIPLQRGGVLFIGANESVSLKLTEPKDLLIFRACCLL

[2] = target: T2, High affinity choline transporter 1 (Homo sapiens, UniProt Q9GZV3); experiment: human choline transporter blockers, potency – cell-based, 5-point CRC, membrane potential dye, dose response (AID 504840); type: functional
T2 sequence (Q9GZV3 whole entry): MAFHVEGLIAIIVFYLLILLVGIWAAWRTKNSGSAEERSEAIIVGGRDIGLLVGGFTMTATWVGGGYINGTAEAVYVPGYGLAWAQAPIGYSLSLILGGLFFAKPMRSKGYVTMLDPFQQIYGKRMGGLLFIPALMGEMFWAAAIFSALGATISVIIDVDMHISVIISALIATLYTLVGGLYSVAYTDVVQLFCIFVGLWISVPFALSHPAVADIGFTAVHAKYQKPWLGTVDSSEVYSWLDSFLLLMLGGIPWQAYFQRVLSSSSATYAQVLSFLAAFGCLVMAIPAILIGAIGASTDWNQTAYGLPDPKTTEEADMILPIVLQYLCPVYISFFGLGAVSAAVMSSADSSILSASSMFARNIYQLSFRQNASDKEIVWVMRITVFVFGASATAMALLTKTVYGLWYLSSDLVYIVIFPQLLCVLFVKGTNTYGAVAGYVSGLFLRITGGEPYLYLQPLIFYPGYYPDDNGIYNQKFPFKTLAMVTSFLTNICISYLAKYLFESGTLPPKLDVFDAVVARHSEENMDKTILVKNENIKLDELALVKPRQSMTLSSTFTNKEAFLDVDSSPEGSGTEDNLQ

[3] = HIV-1 AD8 envelope cell-cell fusion blockers – cherry-pick, dose response (AID 652062); type: functional, cell-based;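 further: luciferase signal from cell-cell fusion driven by HIV-1 clade B AD8 Env; potency is for inhibitors of fusion seen as a drop in luminescence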
[4] = blockers of HIV-1 envelope-mediated cell-cell fusion – cherry-pick, dose response (AID 652057); type: functional, cell-based
Aminopeptidase N = target: T3, Aminopeptidase N (Plasmodium falciparum FcB1/Columbia, UniProt O96935); experiment: malaria alanyl aminopeptidase activity blockers – biochemical, fluorogenic H-Leu-NHMec substrate, 1536-well (AID 1445); design: species or system Plasmodium falciparum 3D7, 3D7
T3 sequence (O96935 whole entry): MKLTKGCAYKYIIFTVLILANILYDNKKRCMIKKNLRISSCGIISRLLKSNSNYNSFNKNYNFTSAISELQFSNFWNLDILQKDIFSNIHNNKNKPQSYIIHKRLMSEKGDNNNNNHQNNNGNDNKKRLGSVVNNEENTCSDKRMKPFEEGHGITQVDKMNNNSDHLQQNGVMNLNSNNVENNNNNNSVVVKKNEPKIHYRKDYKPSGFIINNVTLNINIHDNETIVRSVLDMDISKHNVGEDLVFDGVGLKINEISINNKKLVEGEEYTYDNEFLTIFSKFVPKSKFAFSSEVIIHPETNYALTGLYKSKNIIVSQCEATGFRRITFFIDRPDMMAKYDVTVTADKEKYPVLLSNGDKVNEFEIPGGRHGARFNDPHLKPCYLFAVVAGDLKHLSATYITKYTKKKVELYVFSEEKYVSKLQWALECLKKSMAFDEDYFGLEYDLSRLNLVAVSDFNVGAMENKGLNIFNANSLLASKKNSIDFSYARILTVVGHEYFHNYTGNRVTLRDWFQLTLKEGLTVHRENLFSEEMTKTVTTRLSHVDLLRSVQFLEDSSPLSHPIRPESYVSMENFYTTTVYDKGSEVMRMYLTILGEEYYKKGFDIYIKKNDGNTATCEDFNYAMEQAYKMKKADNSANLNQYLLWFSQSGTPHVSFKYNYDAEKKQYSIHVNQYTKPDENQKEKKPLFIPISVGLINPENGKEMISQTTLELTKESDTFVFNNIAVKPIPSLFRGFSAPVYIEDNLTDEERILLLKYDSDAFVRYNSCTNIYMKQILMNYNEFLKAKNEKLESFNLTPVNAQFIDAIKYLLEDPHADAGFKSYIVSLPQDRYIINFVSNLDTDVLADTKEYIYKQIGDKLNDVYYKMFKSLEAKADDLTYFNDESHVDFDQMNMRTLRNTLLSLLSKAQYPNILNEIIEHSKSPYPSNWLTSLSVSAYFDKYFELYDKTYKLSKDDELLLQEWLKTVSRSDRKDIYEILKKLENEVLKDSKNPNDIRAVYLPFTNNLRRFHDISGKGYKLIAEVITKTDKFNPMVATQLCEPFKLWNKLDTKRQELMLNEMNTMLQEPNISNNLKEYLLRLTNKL

[5] = off-target signal loss in HeLa-CEM21 co-culture – HeLa F-luc CTL cells, cherry-picked, counter-screen for HIV-1 Env fusion inhibitor project, dose response (AID 652040); type: functional, cell-based;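 further: potency for signal decrease marking cytotoxic or nonspecific inhibition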
[6] = CCR5-tropic HIV-1 fusion blockers – cell-based, CCR5-tropic Env, dose response (AID 2279); type: functional
[7] = Luminescence Cell-Based Dose Response HTS to Identify Activators of Luciferase Translation or Activity in H4 […] Cells. [Related pubchem assays: 1829 (Project Summary), 1814 (Primary HTS)]; type: functional
[8] = Luminescence Cell-Based Dose Confirmation HTS to Identify Activators of 5'UTR Stem-Loop Driven Alpha-Synuclein mRNA Translation in H4 Neuroglioblastoma Cells. [Related pubchem assays: 1829 (Project Summary), 1814 (Primary HTS)]; type: functional
[9] = Luminescence Cell-Based Dose Response to Identify Activators of Luciferase Translation or Activity in H4-C Neuroglioblastoma Cells. [Related pubchem assays: 1829 (Project Summary), 1814 (Primary HTS)]; type: functional
[10] = target: T4, Oxysterols receptor LXR-beta (Homo sapiens, UniProt P55055); type: functional, cell-based;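 further: Cell-based luminescence dose-response assay of agonist activity at LXR, run as a confirmatory counterscreen to a daf-12 agonist screen; HEK293 cells with Gal4-LXR fusion and GAL4-driven luciferase reporter; agonist potency from rising luciferase signal of a Gal4-LXR reporter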
T4 sequence (P55055 whole entry): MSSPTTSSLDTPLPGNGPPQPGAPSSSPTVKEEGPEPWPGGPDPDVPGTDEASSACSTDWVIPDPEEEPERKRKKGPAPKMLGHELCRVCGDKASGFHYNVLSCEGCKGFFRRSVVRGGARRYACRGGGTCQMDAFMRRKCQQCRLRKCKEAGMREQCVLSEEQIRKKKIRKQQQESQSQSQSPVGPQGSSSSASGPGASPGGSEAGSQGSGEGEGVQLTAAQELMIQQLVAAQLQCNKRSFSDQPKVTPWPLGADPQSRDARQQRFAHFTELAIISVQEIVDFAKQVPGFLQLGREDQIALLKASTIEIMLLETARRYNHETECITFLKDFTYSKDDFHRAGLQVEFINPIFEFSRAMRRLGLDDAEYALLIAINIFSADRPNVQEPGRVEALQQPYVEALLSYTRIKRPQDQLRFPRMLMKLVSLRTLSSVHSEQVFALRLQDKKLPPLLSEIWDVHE

[11] = Luminescence Cell-Based Dose Confirmation to Identify Activators of 5'UTR Stem-Loop Driven Alpha-Synuclein mRNA Translation in H4 Neuroglioblastoma Cells. [Related pubchem assays: 1829 (Project Summary), 1814 (Primary HTS)]; type: functional
[12] = Luminescence Cell-Based Dose Response to Identify Activators of 5'UTR Stem-Loop Driven Prion Protein mRNA Translation in H4-C Neuroglioblastoma Cells. [Related pubchem assays: 1829 (Project Summary), 1814 (Primary HTS)]; type: functional
H4 = experiment: Luminescence Cell-Based Dose Response HTS to Identify Activators of 5'UTR Stem-Loop Driven Prion Protein mRNA Translation in H4 Neuroglioblastoma Cells. [Related pubchem assays: 1829 (Project Summary), 1814 (Primary HTS)]; type: functional; conditions: Homo sapiens
Nonstructural protein 1 = Nonstructural protein 1 (Influenza A virus, UniProt Q194T2); type: functional, Influenza A virus (A/California/07/2009(H1N1))
[13] = target: T5, Alkaline phosphatase, tissue-nonspecific isozyme (Homo sapiens, UniProt P05186)
T5 sequence (P05186 whole entry): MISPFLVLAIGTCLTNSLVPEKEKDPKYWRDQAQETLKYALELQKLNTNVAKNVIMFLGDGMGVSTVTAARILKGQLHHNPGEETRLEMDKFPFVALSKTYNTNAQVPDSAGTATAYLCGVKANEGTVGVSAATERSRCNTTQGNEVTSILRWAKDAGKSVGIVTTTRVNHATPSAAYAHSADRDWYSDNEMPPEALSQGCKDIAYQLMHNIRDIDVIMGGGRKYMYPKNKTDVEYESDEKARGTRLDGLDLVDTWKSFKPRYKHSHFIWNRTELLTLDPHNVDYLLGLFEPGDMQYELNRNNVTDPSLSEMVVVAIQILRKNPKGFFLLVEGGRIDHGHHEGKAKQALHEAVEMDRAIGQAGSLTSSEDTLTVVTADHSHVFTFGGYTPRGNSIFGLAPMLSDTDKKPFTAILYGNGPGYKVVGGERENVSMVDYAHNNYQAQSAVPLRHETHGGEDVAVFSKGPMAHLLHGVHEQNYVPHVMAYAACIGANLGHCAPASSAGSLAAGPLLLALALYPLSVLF

[14] = target: Heat shock cognate 71 kDa protein (Homo sapiens, UniProt P11142); experiment: In Vitro Hsc70 Dose Response Fluorescence Polarization Assay. [Related pubchem assays: 1072 ]
[15] = target: Heat shock 70 kDa protein 1A (Homo sapiens, UniProt P0DMV8); experiment: inhibition of Hsp70 binding activity – biochemical, fluorescence polarization, SAR follow-up (AID 1072)
[16] = Luminescence Cell-Based Dose Retest to Confirm Inhibitors of Cancer Stem Cells. [Related pubchem assays (depositor defined):AID2717, AID2721]; type: functional; conditions: Homo sapiens

Chain of Heat shock cognate 71 kDa protein (P11142 whole entry): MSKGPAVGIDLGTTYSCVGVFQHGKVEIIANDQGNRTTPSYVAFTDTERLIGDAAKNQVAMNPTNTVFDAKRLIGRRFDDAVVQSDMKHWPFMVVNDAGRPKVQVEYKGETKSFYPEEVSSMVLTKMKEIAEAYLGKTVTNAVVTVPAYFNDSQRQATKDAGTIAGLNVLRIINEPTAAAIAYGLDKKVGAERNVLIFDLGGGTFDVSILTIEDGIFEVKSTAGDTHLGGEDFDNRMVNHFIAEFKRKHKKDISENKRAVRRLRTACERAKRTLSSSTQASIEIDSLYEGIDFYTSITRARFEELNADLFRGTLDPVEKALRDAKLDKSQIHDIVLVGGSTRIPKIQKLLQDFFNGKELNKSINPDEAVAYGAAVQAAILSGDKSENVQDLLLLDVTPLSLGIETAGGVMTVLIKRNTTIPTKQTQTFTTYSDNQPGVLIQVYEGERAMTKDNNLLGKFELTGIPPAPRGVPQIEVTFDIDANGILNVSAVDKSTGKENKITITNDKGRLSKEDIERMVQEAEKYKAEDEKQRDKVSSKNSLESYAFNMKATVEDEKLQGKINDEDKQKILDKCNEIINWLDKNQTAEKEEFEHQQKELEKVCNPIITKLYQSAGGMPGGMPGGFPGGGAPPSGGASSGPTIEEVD
Chain of Heat shock 70 kDa protein 1A (P0DMV8 whole entry): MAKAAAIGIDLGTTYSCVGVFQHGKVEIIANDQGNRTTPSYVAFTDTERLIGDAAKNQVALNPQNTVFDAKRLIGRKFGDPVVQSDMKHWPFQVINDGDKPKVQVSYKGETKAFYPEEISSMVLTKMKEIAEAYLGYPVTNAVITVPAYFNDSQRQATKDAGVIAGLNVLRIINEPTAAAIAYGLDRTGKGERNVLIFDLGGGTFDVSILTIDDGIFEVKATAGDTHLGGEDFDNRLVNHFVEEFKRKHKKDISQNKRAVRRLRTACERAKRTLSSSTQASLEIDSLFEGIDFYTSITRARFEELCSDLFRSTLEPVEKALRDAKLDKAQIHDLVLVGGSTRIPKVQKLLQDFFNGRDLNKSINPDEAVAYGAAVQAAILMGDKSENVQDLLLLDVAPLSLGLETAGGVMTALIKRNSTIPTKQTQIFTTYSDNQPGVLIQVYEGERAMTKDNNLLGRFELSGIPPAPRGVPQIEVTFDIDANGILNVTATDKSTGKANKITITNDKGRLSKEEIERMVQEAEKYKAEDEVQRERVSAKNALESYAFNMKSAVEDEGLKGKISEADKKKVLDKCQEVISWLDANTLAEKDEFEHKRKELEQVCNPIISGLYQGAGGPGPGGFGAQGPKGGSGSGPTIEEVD
Chain of Nonstructural protein 1 (Q194T2 whole entry): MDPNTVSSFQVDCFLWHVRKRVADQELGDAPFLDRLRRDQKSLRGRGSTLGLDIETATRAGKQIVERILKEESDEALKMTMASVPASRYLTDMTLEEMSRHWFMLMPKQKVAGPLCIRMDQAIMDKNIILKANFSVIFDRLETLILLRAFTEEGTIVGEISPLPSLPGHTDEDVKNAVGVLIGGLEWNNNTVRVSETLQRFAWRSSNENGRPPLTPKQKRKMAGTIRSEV

With Cc1cccc(NC(=O)C2CC(=O)n3cnnc3S2)c1 (stereo unspecified) the IC50 [1] was > 50 µM (not active).

In the case of O=S(=O)(Nc1nc2ccccc2nc1Nc1cccc(S(=O)(=O)N2CCCCC2)c1)c1ccccc1, the IC50 [2] is reported as 12 µM (active), the AC50 [3] is reported as 12 µM (active) and the AC50 [4] is reported as 8.16 µM (active). The IC50 (Aminopeptidase N) was 91.9 µM (active), the AC50 [5] was 23.9 µM (active) and the IC50 [6] was 5.7 µM (active).

For O=C(Nc1ccccc1)Nc1cccc2nsnc12, the EC50 (cells) was > 67.5 µM (inactive), the EC50 [7] was < 0.1 µM (inconclusive) and the EC50 [8] was 0.19 µM (active). For the same compound, the EC50 [9] was 0.739 µM (active), the EC50 [10] was > 67.5 µM (inactive) and the EC50 [11] was > 12 µM (not active). For the same compound, the EC50 [12] was 0.452 µM (active) and the EC50 (H4) was 1.37 µM (active).

In the case of Cc1c(C(=O)N(C)C)sc2[nH]c(-c3ccccn3)nc(=O)c12, the IC50 (Nonstructural protein 1) is reported as 13.1 µM (active) and the EC50 [13] is reported as 63.6 µM (not active).

With O=C1C=C2CC3(O)CCc4c(ccc(O)c4O)C3=C2C=C1O (stereo unspecified) the IC50 [14] was > 100 µM (not active) and the IC50 [15] was 34.2 µM (active).

For COc1ccc(C(=O)/C=C/c2ccc(OCc3ccccc3)cc2)cc1CSCC(=O)O, the IC50 [6] was 42.8 µM (active) and the AC50 [16] was 5.79 µM (active).
